Patent publication US12534436B2, “Disubstituted adamantyl derivative or pharmaceutically acceptable salt thereof, and pharmaceutical composition for suppressing cancer growth comprising same as active ingredient” (ONECUREGEN CO., LTD., priority 2020, dated 2026)

Legend:
Type in all cases: cell-based, human
ATP production = ATP production and ATP content (ENLITEN ATP assay kit), HepG2 cells
Description: Next, the effect of mitochondrial respiration on ATP production by oxidative phosphorylation was evaluated by comparing the amount of ATP produced by glycolysis decomposition and mitochondrial respiration in the presence of LW1564 (compound 21-3). ATP content was determined as described in “Chou, T. C. Theoretical basis, experimental design, and computerized simulation of synergism and antagonism in drug combination studies. Pharmacol. Rev. 58, 621-681 (2006).” After HepG2 cells were seeded and incubated with LW1564 (compound 21-3) for 6 hours, ATP content was measured using an ENLITEN® ATP assay kit (Promega, Madison, WI, USA) according to the manufacturer's instructions. Under normoxic conditions, HepG2 cells gained 47% of ATP by mitochondrial respiration and 53% by glycolysis decomposition. […] Compensatory upregulation of this degradation in response to suppression of oxidative phosphorylation occurred by AMPK activation, which was induced by a high AMP/ATP ratio.

Complex IV = assay: Mitochondrial respiration assay, complex IV (ascorbate/TMPD); settings: HepG2 cells (FIG. 4D)
Description: (§1) Compounds that suppress mitochondrial respiration promote degradation of HIF-1α by increasing cellular oxygen content. Accordingly, it was investigated whether LW1564 (compound 21-3) affected mitochondrial respiration by measuring the oxygen consumption rate (OCR). Oxygen consumption was measured using an Oxytherm Clark-type electrode system (Hansatech, Norfolk, UK) (Chou, T. C. Theoretical basis, experimental design, and computerized simulation of synergism and antagonism in drug combination studies. Pharmacol. Rev. 58, 621-681 (2006)). HepG2 cells (2×10^7) were cultured with 2 μM LW1564 (compound 21-3) for 6 hours, collected, and then OCR was measured at 37° C. for 5 minutes with a thermoregulated controlled circulating system. For […] studies, digitonin-permeabilised HepG2 cells (2×10^7) were read on a detection device containing 2 ml of respiratory buffer (0.25 M sucrose, 2 mM KH2PO4, 5 mM MgCl2, 1 mM EDTA, 1 mM ADP, 20 mM MOPS, pH 7.4). The following substrates, which provide electrons to the components in the ETC, were then added: 5 mM sodium pyruvate, 5 mM sodium malate, 5 mM sodium succinate, 5 mM L-ascorbic acid and 0.2 mM N,N,N,N-tetra methyl-p-phenylenediamine (TMPD). Complex I, III and IV inhibitors (rotenone, antimycin A and KCN, respectively) were added to a final concentration of 1 μM. […]

HepG2 and A549 cells = assay: Cell proliferation by live cell imaging system IncuCyte ZOOM; settings: IncuCyte ZOOM (FIG. 1C)
[1] = tested on: mitochondrial ETC complex I; assay: Mitochondrial respiration assay, complex I (malate/pyruvate); settings: HepG2 cells, 100 μM LW1564 (FIG. 4B)
Description: as §1

COc1cc2c(cc1OC)CN(C(=O)C13CC4CC(C1)CC(c1ccc(OCC(=O)N5CCN(Cc6ccc(C(F)(F)F)cc6)CC5)cc1)(C4)C3)CC2 [Compound 21c, 2-(4-(3-(6,7-Dimethoxy-1,2,3,4-tetrahydroisoquinoline-2-carbonyl)adamantan-1-yl)phenoxy)-1-(4-(4-(trifluoromethyl)benzyl)piperazin-1-yl) ethanone]
glycolysis-derived ATP production (ATP production; HepG2 cells (FIG. 3B)): increased
total ATP production, short period of time (ATP production; HepG2 cells (FIG. 3B)): slightly decreased total ATP production
intracellular total ATP levels, longer period (ATP production; HepG2 cells (FIG. 3C)): significantly decreased intracellular total ATP levels
mitochondrial-derived ATP production (ATP production; HepG2 cells, normoxic, untreated cells 47% of ATP by mitochondrial respiration (FIG. 3B)): 16%
oxygen consumption rate in the presence of ascorbate/TMPD (Complex IV): did not affect the oxygen consumption rate
proliferation inhibition, live cell imaging (HepG2 and A549 cells): induced proliferation inhibition of HepG2 and A549 cells in a dose-dependent manner
oxygen consumption by complex I [1]: reduced oxygen consumption by complex I
